Measurements from patent US20240238237A1, “CONJUGATED LINOLEIC ACID SUPPLEMENTATION FOR DISEASE TREATMENT” (VIRGINIA TECH INTELLECTUAL PROPERTIES, INC., priority 2021, published 2024).

Experiments:
[1] = test system: WT, PWS (Snord116m+/p−) and PWS-KO (Snord116m−/p−) mice; assay: Rotarod analysis, Example 1; assay type: in vivo, mouse; conditions: end of study
Experimental: For rotarod analysis, animals were tested using a Columbus Instruments (Columbus, OH, USA) Economex Rota-Rod apparatus. All mice in the study were given four trials each day during the day (between 11 a.m. and 1 p.m.) for four consecutive days from 0 rpm to a maximum speed of 20 rpm, with an acceleration slope of 2.65%. Animals were tested for a maximum of 5 min of running per test, or until the animals fell off the device. The Economex Rota-Rod apparatus is equipped with a pressure-sensitive landing area so that the time spent on the rotating rod is automatically recorded when the animal falls.
The procedure has been previously described. Animals were given between 10 and 15 min of rest in between trials. Note that there are four days of testing, with each day consisting of four trials. The initial trials on Day 1 use a lane where Applicant placed non-slip bathroom tape to provide a stable environment for the animal to learn the procedure. The non-taped lanes were used for Days 2-4. Days 2-3 serve as acclimation days. Day 4 data were used for analysis.

[2] = test system: WT, PWS (Snord116m+/p−) and PWS-KO (Snord116m−/p−) mice; assay: Elevated plus maze anxiety-like behavior, Example 1; assay type: in vivo, mouse; conditions: pre- and post-intervention; genotype, treatment or interaction
Experimental: A plus-shaped elevated plus apparatus with two open and two closed arms was constructed using measurements obtained from a commercial apparatus. This elevated plus maze was used for anxiety-like behavior analysis. The maze was cleaned with 70% ethanol before and after the procedure for each mouse and allowed to fully dry between mice. Mice were placed in the center/cross-arms and allowed to freely explore the maze for 5 min while the duration and frequency of entries into open and closed arms was recorded. Animals that enter the open arms more frequently are considered to display less overall anxiety-like behavior than those that stay in the closed arms.

## conjugated linoleic acid [CLA]
[1]
  Rotarod ability: not affected
[2]
  Time in open arms, elevated plus: no differences
